Series [1] concerns BT-474 stem cell spheroids. Put plainly: Morphology of BT-474 stem cell spheroids under static conditions. The following applies: after 72 h treatment, FIG. 5A. It is filed as cell-based, human. The protocol:
FIG. 5. A. Effect of β-O-Gln, C-Gln or ET-18-OCH3 on morphology of JIMT1 stem cell spheroids. B. Effect of β-O-Gln, α-O-Gln or ET-18-OCH3 on morphology of BT-474 stem cell spheroids. BT-474 cancer stem cells were grown for 7 days in ultra low adhesion 6 well plates. The tumorspheres formed were harvested, trypsinised and cell numbers were determined. Equal numbers of cells were dispersed into 48-well plates in mammocult medium and incubation was under static conditions. After spheres were formed, they were incubated with β-O-Gln, α-O-Gln or β-C-Gln (0, 10, or 30 μM) for 6 days. The medium was replenished after 3 days. Images in FIG. 5A were taken at day 0 and 72 h following addition of the compounds. Images in FIG. 5B were taken after 6 days of incubation with the compounds.
The effects of the GAELs, β-O-Gln, α-O-Gln or C-Gln on the growth and viability of tumorspheres growing under static conditions was also investigated. Studies were also conducted with ET-18-OCH3 as a representative of the ALP subclass and an apoptosis inducing compound. Under static conditions a large number of spheroids are formed in control incubations with the vehicle (0.1% EtOH). […] Complete disintegration is observed after incubation with GAELs for 6 days (FIG. 5B). […] Thus, while some disintegration had occurred it was not as comprehensive as those observed with the GAELs.

Series [2] deals with BT-474 stem cell tumorspheres. Kind of series: Viability of BT-474 stem cell tumorspheres (MTS assay). The following applies: 6 days. It is filed as cell-based, human. On the procedure:
FIG. 6. Effect of β-O-Gln, α-O-Gln, β-C-Gln and ET-18-OCH3 on the viability of BT-474 stem cell tumorspheres. BT-474 cancer stem cells were grown for 7 days in ultra low adhesion 6 well plates. The tumorspheres formed were harvested, trypsinised and cell numbers were determined. Equal numbers of cells were dispersed into 48-well plates in mammocult medium and incubation was under static conditions. Wells with only medium but no cells were treated in an identical manner to serve as blanks. After spheres were formed, β-O-Gln, α-O-Gln, β-C-Gln or ET-18-OCH3 (0, 10, 20, 30 μM) were added and incubation was for a total of 6 days. At the end of the incubation, the MTS reagent was added to each well and the plates were rotated on a Nutator mixer in a 5% CO2 incubator for 4 h. The absorbance of each well was read at 470 nm. The results are the means±standard deviation of 4 independent determinations.
Cell viability assay: Cell viability was determined by the Cell Titre 96 Aqueous One solution proliferation assay ((MTS assay; Promega) according to the instructions of the manufacturer.
The viability of the material at the end of the incubation was determined using the MTS assay. […] In cells incubated with 10 μM of β-C-Gln, 90% of the cells were not viable. […] In contrast, in experiments with ET-18-OCH3, 10 or 20 μM ET-18-OCH3 had little effect on the viability of BT-474 spheroids and at a concentration of 30 μM viability was around 45% relative to controls. The results of the integrity studies correlate well with the viability studies.
We also investigated the effect of α-O-Galn, β-O-Galn or α-O-Mann on the viability of BT-474 spheroids. The spheroids were incubated with the compounds for 6 days and the viability was assessed by the MTS assay. […] Viability was down to around 10% at 10 μM concentration of the compound. […] At a concentration of 30 μM a significant proportion (26-32%) of the BT-474 cancer stem cells were still viable. The cytotoxic efficacy of GAELs is dependent on the type of sugar moiety and the anomeric form in some instances.
On the technique in general: Formazan colour is commonly taken as a measure of viable cells.

Molecules are shown by their SMILES.

`CCCCCCCCCCCCCCCCOC[C@H](CO[C@@H]1O[C@H](CO)[C@@H](O)[C@H](O)[C@H]1N)OC` [β-O-Gln, 1-O-hexadecyl-2-O-methyl-3-O-(2′-amino-2′-deoxy-β-D-glucopyranosyl)-sn-glycerol]: the spheroid integrity result in series [1] was “significant disintegration”. In addition, the loss of viability entry is listed as “about 60%” in series [2] (10 μM) and “total loss of viability” in series [2] (20 or 30 μM).

Values taken from US11261210B2, “Glycosylated antitumor ether lipids as novel cancer stem cell cytotoxic agents” (UNIVERSITY OF MANITOBA, priority 2012, dated 2022).
